Results published in the supplement of paper PMC13380429.

Tests used:
U2OS [1] = experiment: relative viability EC50 (midpoint between 100% and the lowest measured viability); higher = less toxic; details: 72 h
Calu-3 [2] = experiment: as above; details: 72 h
Caco-2 [3] = experiment: as above; details: 72 h
Vero E6 [4] = experiment: as above; details: 72 h
HepG2 [5] = experiment: as above; details: 72 h
U2OS [6] = experiment: cell viability relative to DMSO; higher = less toxic; details: 72 h
Calu-3 [7] = experiment: as above; details: 72 h
Caco-2 [8] = experiment: as above; details: 72 h
Vero E6 [9] = experiment: as above; details: 72 h
HepG2 [10] = experiment: as above; details: 72 h
[11] = tested on: A549-ACE2 infected with SARS-CoV-2; experiment: cell count relative to DMSO; higher = less toxic; details: 24 h
U2OS [12] = experiment: drug sensitivity score (DSS) for viability; higher = more toxic; extreme values may be limits of the assay; details: 72 h
Calu-3 [13] = experiment: as above; details: 72 h
Caco-2 [14] = experiment: as above; details: 72 h
Vero E6 [15] = experiment: as above; details: 72 h
HepG2 [16] = experiment: as above; details: 72 h
[17] = tested on: A549-ACE2 infected with SARS-CoV-2; experiment: SARS-CoV-2 infection rate relative to DMSO; higher = more infection; details: 24 h
A549-ACE2 [18] = experiment: drug-induced phospholipidosis relative to tamoxifen; higher = more phospholipidosis
[19] = tested on: A549-ACE2 infected with SARS-CoV-2; experiment: morphology score (similarity to uninfected cells); higher = more like uninfected cells; details: 24 h
A549-ACE2 [20] = experiment: phospholipidosis EC50; higher = less potent phospholipidosis inducer

COc1cc2c(NC3CCN(C(C)C)CC3)nc(N3CCC(F)(F)CC3)nc2cc1OCCCN1CCCC1 [UNC0642]
Details	drug sensitivity score	relative viability EC50 [µM]
Caco-2 [3]	–	> 10
Caco-2 [14]	0	–
Calu-3 [2]	–	2.78
Calu-3 [13]	4.2	–
HepG2 [5]	–	3.34
HepG2 [16]	4	–
U2OS [1]	–	> 10
U2OS [12]	0.7	–
Vero E6 [4]	–	> 10
Vero E6 [15]	0	–

Details	SARS-CoV-2 infection rate [%]	cell count [%]	cell viability [%]	morphology score	phospholipidosis EC50 [µM]
A549-ACE2 [20], 48 h	–	–	–	–	1.19
A549-ACE2 [20], 72 h	–	–	–	–	3.66
Caco-2 [8], 1 nM	–	–	101	–	–
Caco-2 [8], 10 nM	–	–	92.5	–	–
Caco-2 [8], 100 nM	–	–	104	–	–
Caco-2 [8], 1000 nM	–	–	106	–	–
Caco-2 [8], 10000 nM	–	–	99.7	–	–
Calu-3 [7], 1 nM	–	–	93.9	–	–
Calu-3 [7], 10 nM	–	–	95.1	–	–
Calu-3 [7], 100 nM	–	–	95.3	–	–
Calu-3 [7], 1000 nM	–	–	96.6	–	–
Calu-3 [7], 10000 nM	–	–	32.9	–	–
HepG2 [10], 1 nM	–	–	95.1	–	–
HepG2 [10], 10 nM	–	–	103	–	–
HepG2 [10], 100 nM	–	–	106	–	–
HepG2 [10], 1000 nM	–	–	102	–	–
HepG2 [10], 10000 nM	–	–	24.8	–	–
U2OS [6], 1 nM	–	–	98.6	–	–
U2OS [6], 10 nM	–	–	95.4	–	–
U2OS [6], 100 nM	–	–	100	–	–
U2OS [6], 1000 nM	–	–	98.6	–	–
U2OS [6], 10000 nM	–	–	81.1	–	–
Vero E6 [9], 1 nM	–	–	96.6	–	–
Vero E6 [9], 10 nM	–	–	102	–	–
Vero E6 [9], 100 nM	–	–	91.6	–	–
Vero E6 [9], 1000 nM	–	–	108	–	–
Vero E6 [9], 10000 nM	–	–	105	–	–
[11], 0.3 µM	–	94	–	–	–
[11], 3 µM	–	122	–	–	–
[11], 10 µM	–	123	–	–	–
[11], 30 µM	–	89	–	–	–
[17], 0.3 µM	87	–	–	–	–
[17], 3 µM	21	–	–	–	–
[17], 10 µM	13	–	–	–	–
[17], 30 µM	35	–	–	–	–
[19], 0.3 µM	–	–	–	0.09	–
[19], 3 µM	–	–	–	0.76	–
[19], 10 µM	–	–	–	0.09	–
[19], 30 µM	–	–	–	-0.23	–

drug-induced phospholipidosis [%], A549-ACE2 [18]
Details	0.3 µM	0.833333 µM	3.33333 µM	6.66667 µM	10 µM	30 µM
24 h	4.47	9.42	29.6	35.7	32.6	5.01
48 h	8.91	12.1	34	48.6	51.8	0.44
72 h	9.24	11	36.7	55.6	62.4	–

COc1cc2c(cc1OC)-c1c/c(=N\c3c(C)cc(C)cc3C)n(C)c(=O)n1CC2 [trequinsin]
Details	drug sensitivity score	relative viability EC50 [µM]
Caco-2 [3]	–	> 10
Caco-2 [14]	0	–
Calu-3 [2]	–	> 10
Calu-3 [13]	0.2	–
HepG2 [5]	–	> 10
HepG2 [16]	0.9	–
U2OS [1]	–	> 10
U2OS [12]	0	–
Vero E6 [4]	–	> 10
Vero E6 [15]	0	–

Details	SARS-CoV-2 infection rate, [17] [%]	cell count, [11] [%]	cell viability, Caco-2 [8] [%]	cell viability, Calu-3 [7] [%]	cell viability, HepG2 [10] [%]	cell viability, U2OS [6] [%]	cell viability, Vero E6 [9] [%]	morphology score, [19]
1 nM	–	–	97.5	102	102	96.8	92.2	–
10 nM	–	–	91.9	89.5	94.4	99.7	97.1	–
100 nM	–	–	97.2	94.3	102	97.6	97	–
0.3 µM	97	100	–	–	–	–	–	0.06
1000 nM	–	–	97	100	92.8	99.6	92.7	–
3 µM	93	103	–	–	–	–	–	0.26
10000 nM	–	–	86.4	85	84.1	95.5	89.1	–
10 µM	59	111	–	–	–	–	–	0.67
30 µM	19	110	–	–	–	–	–	0.75

drug-induced phospholipidosis [%], A549-ACE2 [18]
Details	0.3 µM	0.833333 µM	3.33333 µM	6.66667 µM	10 µM	30 µM
24 h	3.52	0.24	10.1	3.08	1.51	20.8
48 h	3.24	1.48	5.48	3.57	5.51	32.1
72 h	4.95	1.02	3.84	4.01	6.79	–

CCn1c(-c2nonc2N)nc2cncc(C(=O)N3CC[C@H](N)C3)c21
Details	drug sensitivity score	relative viability EC50 [µM]
Caco-2 [3]	–	> 10
Caco-2 [14]	0.5	–
Calu-3 [2]	–	> 10
Calu-3 [13]	0	–
HepG2 [16]	2.2	–
U2OS [12]	3.7	–
Vero E6 [15]	4.4	–

Details	SARS-CoV-2 infection rate, [17] [%]	cell count, [11] [%]	cell viability, Caco-2 [8] [%]	cell viability, Calu-3 [7] [%]	cell viability, HepG2 [10] [%]	cell viability, U2OS [6] [%]	cell viability, Vero E6 [9] [%]	morphology score, [19]
1 nM	–	–	98.7	104	99.3	103	107	–
10 nM	–	–	99.1	94	108	99.1	106	–
100 nM	–	–	98.1	107	95.9	101	95.3	–
0.1 µM	103	104	–	–	–	–	–	0.19
0.3 µM	105	110	–	–	–	–	–	0.18
1000 nM	–	–	93.5	127	88.2	88.2	84.6	–
1 µM	109	91	–	–	–	–	–	-0.07
3 µM	105	73	–	–	–	–	–	-0.12
10000 nM	–	–	84.2	124	71.8	60.5	52.2	–

drug-induced phospholipidosis [%], A549-ACE2 [18]
Details	0.3 µM	0.833333 µM	3.33333 µM	6.66667 µM	10 µM	30 µM
24 h	0.14	1.05	-2.9	-4.65	-1.66	4.03
48 h	0.57	0.37	-3.24	-3.77	-1.92	7.82
72 h	0.439	-0.392	-3.22	-2.1	–	–

Cc1ccc(NC(=O)c2ccc(CN3CCN(C)CC3)cc2)cc1Nc1nc(-c2cccnc2)cs1 [masitinib]
Details	drug sensitivity score	relative viability EC50 [µM]
Caco-2 [14]	1.6	–
Calu-3 [2]	–	> 10
Calu-3 [13]	1.2	–
HepG2 [5]	–	3.29
HepG2 [16]	2.9	–
U2OS [1]	–	> 10
U2OS [12]	0	–
Vero E6 [4]	–	> 10
Vero E6 [15]	0.1	–

Details	SARS-CoV-2 infection rate, [17] [%]	cell count, [11] [%]	cell viability, Caco-2 [8] [%]	cell viability, Calu-3 [7] [%]	cell viability, HepG2 [10] [%]	cell viability, U2OS [6] [%]	cell viability, Vero E6 [9] [%]	morphology score, [19]
1 nM	–	–	104	107	105	106	105	–
10 nM	–	–	99.5	88	103	101	102	–
100 nM	–	–	99.1	97.4	99.6	104	101	–
0.3 µM	98	88	–	–	–	–	–	0.14
1000 nM	–	–	97.3	97.9	101	98	98	–
10000 nM	–	–	72	75.1	43.9	93.2	88.9	–

A549-ACE2 [18], 0.3 µM
Details	drug-induced phospholipidosis [%]
24 h	-0.73
48 h	0.9
72 h	2.47

CO[C@H]1C[C@H](O[C@@H]2/C(C)=C/C[C@@H]3C[C@@H](C[C@]4(CC[C@H](C)[C@@H](C5CCCCC5)O4)O3)OC(=O)[C@@H]3C=C(C)/C(=N/O)[C@H]4OC/C(=C\C=C\[C@@H]2C)[C@]43O)O[C@@H](C)[C@@H]1O [selamectin]
Details	drug sensitivity score	relative viability EC50 [µM]
Caco-2 [3]	–	> 10
Caco-2 [14]	2.5	–
Calu-3 [2]	–	> 10
Calu-3 [13]	0	–
HepG2 [5]	–	> 10
HepG2 [16]	0.1	–
U2OS [1]	–	> 10
U2OS [12]	0	–
Vero E6 [4]	–	> 10
Vero E6 [15]	0	–

Details	SARS-CoV-2 infection rate, [17] [%]	cell count, [11] [%]	cell viability, Caco-2 [8] [%]	cell viability, Calu-3 [7] [%]	cell viability, HepG2 [10] [%]	cell viability, U2OS [6] [%]	cell viability, Vero E6 [9] [%]	morphology score, [19]
1 nM	–	–	112	101	113	103	104	–
10 nM	–	–	119	106	120	98	104	–
100 nM	–	–	105	96.2	117	103	104	–
0.3 µM	103	96	–	–	–	–	–	-0.14
1000 nM	–	–	79.9	104	121	98.8	107	–
3 µM	79	105	–	–	–	–	–	0.43
10000 nM	–	–	86.5	91.2	84.1	90.4	86.7	–
10 µM	48	93	–	–	–	–	–	0.75
30 µM	15	111	–	–	–	–	–	0.7
